# Assay results published in patent US6482951B2 (Hoffmann-La Roche Inc., priority 2000, dated 2002).
# Tested on: C57BL/6J mice
# Experiment: Glucokinase activator in vivo screen (blood glucose after oral dosing)
# Conditions: oral gavage 50 mg/kg, blood glucose at 0, 1, 2, 4, 6 h, active = significant (p ≦0.05) decrease for two consecutive time points
# Method: Glucokinase Activator in vivo Screen Protocol: C57BL/6J mice are orally dosed via gavage with Glucokinase (GK) activator at 50 mg/kg body weight following a two hour fasting period. Blood glucose determinations are made five times during the six hour post-dose study period.
# Mice (n=6) are weighed and fasted for a two hour period prior to oral treatment. GK activators are formulated at 6.76 mg/ml in Gelucire vehicle (Ethanol:Gelucire44/14:PEG400q.s. 4:66:30 v/w/v. Mice are dosed orally with 7.5 μl formulation per gram of body weight to equal to a 50 mg/kg dose. Immediately prior to dosing, a pre dose (time zero) blood glucose reading is acquired by snipping off a small portion of the animals tail (˜1 mm) and collecting 15 μl blood into a heparinized capillary tube for analysis. Following GK activator administration, additional blood glucose reading are takenat 1, 2, 4 and 6 hours post dose from the same tail wound. Results are interpreted by comparing the mean blood glucose values of six vehicle treated mice with six GK activator treated mice over the six hour study duration. Compounds are considered active when they exibit a statistically significant (p ≦0.05) decrease in blood glucose compared to vehicle for two consecutive assay time points.
row,Compound,glucokinase activator in vivo activity (decrease in blood glucose compared to vehicle)
1,"O=C(Nc1nccs1)[C@H](CC1CCCCC1)N1Cc2ccccc2C1=O [Example 1, (S)-3-cyclohexyl-2-(1-oxo-1,3-dihydro-isoindol-2-yl)-N-thiazol-2-yl-propionamide]",excellent glucokinase activator in vivo activity
2,"Cc1ccc(NC(=O)[C@H](CC2CCCCC2)N2Cc3ccccc3C2=O)nc1 [Example 31, (S)-3-Cyclohexyl-2-(1-oxo-1,3-dihydro-isoindol-2-yl)-N-5-methyl-pyridin-2-yl-propionamide]",excellent glucokinase activator in vivo activity
3,O=C(Nc1cnccn1)[C@H](CC1CCCCC1)N1Cc2c(F)cccc2C1=O [Example 25.1],excellent glucokinase activator in vivo activity
4,"O=C(Nc1ccncn1)[C@H](CC1CCCCC1)N1Cc2ccccc2C1=O [Example 14, 3-Cyclohexyl-2-(1-oxo-1,3-dihydro-isoindol-2-yl)-N-pyrimidin-4-yl-propionamide]",excellent glucokinase activator in vivo activity
5,"O=C(Nc1ccc(Cl)cn1)[C@H](CC1CCCCC1)N1Cc2ccccc2C1=O [Example 33, (S)-3-Cyclohexyl-2-(1-oxo-1,3-dihydro-isoindol-2-yl)-N-5-chloro-pyridin-2-yl-propionamide]",excellent glucokinase activator in vivo activity
6,"O=C(Nc1ccccn1)[C@H](CC1CCCCC1)N1Cc2ccccc2C1=O [Example 26, (S)-3-Cyclohexyl-2-(1-oxo-1,3-dihydro-isoindol-2-yl)-N-pyridin-2-yl-propionamide]",excellent glucokinase activator in vivo activity
7,"O=C(Nc1nccs1)[C@H](CC1CCCCC1)N1Cc2c(F)cccc2C1=O [Example 23.1, (S)-3-Cyclohexyl-2-(4-fluoro-1-oxo-1,3-dihydro-isoindol-2-yl)-N-thiazol-2-yl-propionamide]",excellent glucokinase activator in vivo activity
8,"O=C(Nc1ncc(Cl)s1)C(CC1CCCC1)N1Cc2ccccc2C1=O (centres unmarked) [Example 18, N-(5-Chloro-thiazol-2-yl)-3-cyclopentyl-2-(1-oxo-1,3-dihydro-isoindol-2-yl)-propionamide]",excellent glucokinase activator in vivo activity
9,"O=C(Nc1cnccn1)[C@H](CC1CCCCC1)N1Cc2ccccc2C1=O [Example 15, (S)-3-Cyclohexyl-2-(1-oxo-1,3-dihydro-isoindol-2-yl)-N-pyrazin-2-yl-propionamide]",excellent glucokinase activator in vivo activity
10,"O=C(Nc1ccc(Br)cn1)[C@H](CC1CCCCC1)N1Cc2ccccc2C1=O [Example 22, (S)-N-(5-Bromo-pyridin-2-yl)-3-cyclohexyl-2-(1-oxo-1,3-dihydro-isoindol-2-yl)-propionamide]",excellent glucokinase activator in vivo activity

# Target: T1, Human liver GK1 (GST-GK) (Homo sapiens, UniProt P35557)
# T1 construct: made in house; host or cells: E. coli
# T1 sequence (P35557 1-466 isoform P35557-2): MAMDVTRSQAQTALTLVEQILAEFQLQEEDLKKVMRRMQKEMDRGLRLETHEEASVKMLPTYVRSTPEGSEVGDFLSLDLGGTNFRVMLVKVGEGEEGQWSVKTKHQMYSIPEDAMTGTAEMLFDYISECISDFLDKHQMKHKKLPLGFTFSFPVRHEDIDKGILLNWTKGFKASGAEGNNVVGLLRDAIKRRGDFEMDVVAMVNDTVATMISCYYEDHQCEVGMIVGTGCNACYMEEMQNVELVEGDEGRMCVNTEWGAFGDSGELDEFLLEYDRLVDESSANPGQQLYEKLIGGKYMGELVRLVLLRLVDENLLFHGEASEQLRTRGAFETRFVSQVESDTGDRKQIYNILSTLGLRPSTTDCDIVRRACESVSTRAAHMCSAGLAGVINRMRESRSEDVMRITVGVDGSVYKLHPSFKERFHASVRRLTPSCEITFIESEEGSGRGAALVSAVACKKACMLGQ
# Experiment: In vitro glucokinase activity assay (G6PDH-coupled, NADH, OD 340 nm)
# Type: biochemical
# Conditions: 25° C., 5 mM D-glucose, 1 mM ATP, 10% DMSO, recombinant GST-GK
# Method: Glucokinase Assay: Glucokinase (GK) was assayed by coupling the production of glucose-6-phosphate to the generation of NADH with glucose-6-phosphate dehydrogenase (G6PDH, 0.75-1 kunits/mg; Boehringer Mannheim, Indianapolis, Ind.) from Leuconostoc mesenteroides as the coupling enzyme (Scheme 2). Recombinant
# Human liver GK1 was expressed in E. coli as a glutathione S-transferase fusion protein (GST-GK) [Liang et al, 1995] and was purified by chromatography over a glutathione-Sepharose 4B affinity column using the procedure provided by the manufacturer (Amersham Pharmacia Biotech, Piscataway, N.J.).
# The assay was conducted at 25° C. in a flat bottom 96-well tissue culture plate from Costar (Cambridge, Mass.) with a final incubation volume of 120 μl. The incubation mixture contained: 25 mM Hepes buffer (pH, 7.1), 25 mM KCl, 5 mM D-glucose, 1 mM ATP, 1.8 mM NAD, 2 mM MgCl2, 1 μM sorbitol-6-phosphate, 1 mM dithiothreitol, test drug or 10% DMSO, 1.8 unit/ml G6PDH, and GK (see below). […]
# After addition of enzyme, the increase in optical density (OD) at 340 nm was monitored over a 10 minute incubation period as a measure of GK activity. […] The GK activity in control wells was compared with the activity in wells containing test GK activators, and the concentration of activator that produced a 50% increase in the activity of GK, i.e., the SC1.5, was calculated.
row,SC1.5 (concentration of activator that produced a 50% increase in the activity of GK) [µM],Compound
1,36,"O=C(Nc1nccs1)[C@@H](CC1CCCCC1)N1Cc2ccccc2C1=O [Example 9, (R)-3-cyclohexyl-2-(1-oxo-1,3-dihydro-isoindol-2-yl)-N-thiazol-2-yl-propionamide]"
